Laboratory results published in PMC6150735, “Molecular Docking-Based Design and Development of a Highly Selective Probe Substrate for UDP-glucuronosyltransferase 1A10” (Molecular Pharmaceutics, 2018).
Entries after “also recorded” stand apart in the source; their conditions may differ.

How the values were obtained:
[1] = tested on: human UGTs; assay: Recombinant human UGT screen: glucuronidation rates across human UGTs; type: biochemical; details: 10 μM aglycone; other UGTs at very low rates
Description: Recombinant human UGTs 1A1, 1A3, 1A6, 1A7, 1A8, 1A9, 1A10, 2A1, 2A2, 2A3, 2B4, 2B10, 2B7, and 2B17 were produced, as His-tagged proteins, in baculovirus-infected insect cells as previously described.[37]−[39] The relative expression level of each of these recombinant UGTs was evaluated by immunodetection, using monoclonal antibody against the His-tag, as described elsewhere.[40] A numeric value of 1.0 was given to the expression level of UGT1A8 and the relative expression level of each of the other UGTs was related to this value. Normalized activities were obtained by dividing the glucuronidation rate values by the relative expression level of the tested UGT. In addition, UGTs 1A4, 2B10, and 2B15 were purchased from Corning Life Sciences (New York) and are marked, in Figure 5, with a “C” to indicate that they are commercial enzymes. The expression levels of the UGTs in the commercial samples could not be determined, so their protein concentration was used to calculate the reaction rate.
(§1) The incubation mixtures for glucuronidation assays contained 100 mM Tris-HCl buffer pH 7.4, 2.5 mM MgCl2, 0.5 mM UDPGA, recombinant UGT, or microsomes as the enzyme source and 0–15 μM of the test aglycone substrate. When the incubation mixtures contained microsomes, alamethicin was used at a final concentration of 12.5 μg/mL, but it was not included in the recombinant enzyme assays.[43] In the first experiments three negative control samples were tested, namely (i) without the substrate 7-hydroxycoumarin derivative, (ii) without the cofactor UDPGA, or (iii) without the enzyme source. In subsequent experiments, the control samples lacked the enzyme source since it gave the highest fluorescence background. Preliminary experiments were done under different conditions than most of the later assays, namely in 2.5 mL of 100 mM phosphate buffer pH 7.4, containing 500 μg pig liver microsomes, 1.0 μM compound 6 and 0.5 mM UDPGA, at room temperature. Fluorescence spectra (excitation 200–420 nm; emission 400–600 nm) or fluorescence decrease at 390 nm excitation and 460 nm emission, were measured in these preliminary experiments, using a Shimadzu RF-5000 spectrophotofluorometer.
(§2) Most of the glucuronidation assays were carried out in 96 multiwell plate format, and incubations were carried out in 100 μL and at 37 °C, in the presence of Tris–HCl buffer pH 7.4, UDPGA, and the tested 7-hydroxycoumarin derivative, at the indicated concentrations. Fluorescence decline in the multiwell plate experiments was monitored every other minute, for 40 min, using an excitation filter at 405 nm and detection at 460 nm, in a Victor2 1420 Multilabel counter (PerkinElmer, Life Sciences, Turku, Finland). The fluorescence values were transformed into molarity using the aglycone substrates for making the respective standard curves. Slopes of the substrate concentration decrease per minute were calculated using linear regression analysis, in which the linear part of the kinetic assay indicated the glucuronidation rate. Enzyme catalyzed glucuronidation rate was calculated by subtracting the blank value from the full reaction value. The intra-assay variability of the kinetic assays was 6% when compound 6 was used as the aglycone substrate. Kinetic analyses were also performed in the same 96 multiwell plates format, with excitation filter at 405 nm and detection at 460 nm, using 6–8 different substrate concentrations per substrate and two different protein concentrations for both the wild-type and mutant UGT1A10. The higher concentrations, 13.5 mg/L for UGT1A10 and 12.0 mg/L for the UGT1A10 mutant, were used when the substrates were HFC, compounds 4 and 6, whereas the lower protein concentrations, 6.75 and 6.0 mg/L for UGT1A10 and the mutant, respectively, were used when the substrates were compounds 1, 2, 3, and 5.

[2] = tested on: human liver microsomes (HLM); assay: Glucuronidation by human liver microsomes (HLM); type: in vitro ADME; details: 10 μM aglycone
Description: A commercial HLM pool (cat no:452210, BD Gentest, Bedford, MA) and human intestine microsomes (HIM) pool (lot. no 1110189, XenoTech, Kansas City, KS) were purchased. Pig liver samples were prepared from untreated female pigs that were used for practicing surgical procedures at the University of Kuopio (currently: University of Eastern Finland, Kuopio campus). Other animal liver microsomes were prepared as described previously.[41] The Ethics Committee for Animal Experiments, University of Kuopio, approved these experiments.
as §1, §2

[3] = Absorbance spectra of coumarin derivatives; type: physicochemical; details: 10 μM, 100 mM Tris–HCl pH 7.4, 10% dimethyl sulfoxide
Description: (§3) The absorbance spectra of 10 μM coumarin derivatives at 100 mM Tris–HCl pH 7.4 containing 10% dimethyl sulfoxide were measured using a Hitachi U-2000 Spectrophotometer (Tokyo, Japan). Excitation and emission fluorescence spectra of 0.1 μM coumarin derivatives in 100 mM Tris-HCl pH 7.4 were measured using a Shimadzu RF-5000 spectrophotofluorometer (Tokyo, Japan). The excitation spectra was from 200 to 420 at 460 nm emission and the emission spectra was from 400 to 600 at 390 nm excitation (data in Supplementary Table S1 and Figures S1 and S2). The effect of pH on fluorescence intensity was determined at 405 nm excitation and 460 nm emission, in the presence of 1.5% trichloroacetic acid, 100 mM phosphate buffers at pH 5, 6, 7, 8, and 9, or 1.6 M glycine–NaOH pH 10.4.

[4] = Excitation and emission fluorescence spectra of coumarin derivatives; type: physicochemical; design: dose or concentration left out as unconfirmed
Description: as §3, with “Excitation and emission fluorescence spectra of 0.1 μM coumarin derivatives in 100 mM Tris-HCl pH 7.4 were measured using a Shimadzu RF-5000 spectrophotofluorometer (Tokyo, Japan).” left out

Compound | Selectivity among human UGTs [1] | Glucuronidation by HLM (in words) [2] | Amax [3] [nm] | ε abs [3] [M⁻¹ cm⁻¹] | Fluorescence EMmax [4] [nm] | Fluorescence EXmax [4] [nm]
CN(C)c1ccc(-c2cc3ccc(O)cc3oc2=O)cc1 [Compound 4, 7-Hydroxy-3-(4-(dimethylamino)phenyl)-2H-chromen-2-one] | selective for UGT1A10 | not glucuronidated by HLM at all, or only at very low rates; also recorded: very low or below the detection limit | 370 | 22900 | 457 | –
Cc1ccc(-c2cc3ccc(O)cc3oc2=O)cc1 [Compound 5, 7-Hydroxy-3-(p-tolyl)-2H-chromen-2-one] | selective for UGT1A10 | – | 347 | 19500 | 462 | 358
